# Experimental data as given in patent publication US8691991B2 (priority 2004, dated 2014).
# System: Pseudotyped HIV vector
# Assay: Pseudotyped HIV vector expressing luciferase reporter assay
# Type: cell-based
# Conditions: Human immunodeficiency virus 1
# Protocol: Pseudotyped HIV Vector Expressing Luciferase Reporter Assay
# Expression of luciferase reporter following viral integration was performed essentially as described in Jármy, G. et al., J. Medical Virology, 64:223-231, 2001.
row,SMILES,IC50
1,"COCCN(C)C(=O)Cn1c(=O)c(C(=O)NC(C)CO)c(O)c2ncc(Cc3ccc(F)cc3)cc21 (racemic) [Example 105, (±)-7-[(4-Fluorophenyl)methyl]-4-hydroxy-N-[2-hydroxy-1-methylethyl]-1-(2-{methyl[2-(methyloxy)ethyl]amino}-2-oxoethyl)-2-oxo-1,2-dihydro-1,5-naphthyridine-3-carboxamide]",< 10 nM
2,"COCCN(C)C(=O)Cn1c(=O)c(C(=O)NCC(C)O)c(O)c2ncc(Cc3ccc(F)cc3)cc21 (racemic) [Example 106, (±)-7-[(4-Fluorophenyl)methyl]-4-hydroxy-N-[(2-hydroxypropyl]-1-(2-{methyl[2-(methyloxy)ethyl]amino}-2-oxoethyl)-2-oxo-1,2-dihydro-1,5-naphthyridine-3-carboxamide]",< 10 nM
3,"COCCNC(=O)c1c(O)c2ncc(Cc3ccc(F)cc3)cc2[nH]c1=O [Example 2, 7-(4-Fluorobenzyl)-4-hydroxy-N-(2-methoxyethyl)-2-oxo-1,2-dihydro-1,5-naphthyridine-3-carboxamide]",< 10 nM
4,"O=C(NC1CC1)c1c(O)c2ncc(Cc3ccc(F)cc3)cc2n(CCN2CCCC2=O)c1=O [Example 9, N-Cyclopropyl-7-(4-fluorobenzyl)-4-hydroxy-2-oxo-1-[2-(2-oxopyrrolidin-1-yl)ethyl]-1,2-dihydro-1,5-naphthyridine-3-carboxamide]",< 10 nM
5,"O=C(NCCN1CCOCC1)c1c(O)c2ncc(Cc3ccc(F)cc3)cc2n(CCN2CCCC2=O)c1=O [Example 10, 7-(4-Fluorobenzyl)-4-hydroxy-N-(2-morpholin-4-ylethyl)-2-oxo-1-[2-(2-oxopyrrolidin-1-yl)ethyl]-1,2-dihydro-1,5-naphthyridine-3-carboxamide]",< 10 nM
6,COCCNC(=O)c1c(O)c2ncc(Cc3ccccc3)cc2n(CC(=O)N2CCOCC2)c1=O [Example 12],< 10 nM
7,COCCNC(=O)c1c(O)c2ncc(Cc3ccccc3)cc2[nH]c1=O [Example 17],10 to 25 nM
8,O=C(NCCCN1CCCC1=O)c1c(O)c2ncc(Cc3ccc(F)cc3)cc2[nH]c1=O [Example 28],< 10 nM
9,"O=C(NCCN1CCOCC1)c1c(O)c2ncc(Cc3ccc(F)cc3)cc2[nH]c1=O [Example 36, 7-[(4-Fluorophenyl)methyl]-4-hydroxy-N-[2-(4-morpholinyl)ethyl]-2-oxo-1,2-dihydro-1,5-naphthyridine-3-carboxamide]",< 10 nM
10,"COCCNC(=O)c1c(O)c2ncc(Cc3ccccc3)cc2n(Cc2ccc(S(C)(=O)=O)cc2)c1=O [Example 45, 7-Benzyl-4-hydroxy-N-(2-methoxyethyl)-1-[4-(methylsulfonyl)benzyl]-2-oxo-1,2-dihydro-1,5-naphthyridine-3-carboxamide]",< 10 nM
11,"COCCNC(=O)c1c(O)c2ncc(Cc3ccc(F)cc3)cc2n(CCN2CCCC2=O)c1=O [Example 49, 7-(4-Fluorobenzyl)-4-hydroxy-N-(2-methoxyethyl)-2-oxo-1-[2-(2-oxopyrrolidin-1-yl)ethyl]-1,2-dihydro-1,5-naphthyridine-3-carboxamide]",< 10 nM
12,"COCCNC(=O)c1c(O)c2ncc(Cc3ccccc3)cc2n(Cc2nccn2C)c1=O [Example 50, 7-Benzyl-4-hydroxy-N-(2-methoxyethyl)-1-[(1-methyl-1H-imidazol-2-yl)methyl]-2-oxo-1,2-dihydro-1,5-naphthyridine-3-carboxamide]",< 10 nM
13,"COCCNC(=O)c1c(O)c2ncc(Cc3ccccc3)cc2n(CC2CC2)c1=O [Example 54, 7-Benzyl-1-(cyclopropylmethyl)-4-hydroxy-N-(2-methoxyethyl)-2-oxo-1,2-dihydro-1,5-naphthyridine-3-carboxamide]",< 10 nM
14,"COCCNC(=O)c1c(O)c2ncc(Cc3ccccc3)cc2n(Cc2nccs2)c1=O [Example 62, 7-Benzyl-4-hydroxy-N-(2-methoxyethyl)-2-oxo-1-(1,3-thiazol-2-ylmethyl)-1,2-dihydro-1,5-naphthyridine-3-carboxamide]",< 10 nM
15,"COCCNC(=O)c1c(O)c2ncc(Cc3ccc(F)cc3)cc2n(Cc2ccc(S(C)(=O)=O)cc2)c1=O [Example 64, 7-(4-Fluorobenzyl)-4-hydroxy-N-(2-methoxyethyl)-1-[4-(methylsulfonyl)benzyl]-2-oxo-1,2-dihydro-1,5-naphthyridine-3-carboxamide]",< 10 nM
16,"O=C(NCCN1CCOCC1)c1c(O)c2ncc(Cc3ccc(F)cc3)cc2n(CC(=O)N2CCOCC2)c1=O [Example 83, 7-[(4-Fluorophenyl)methyl]-4-hydroxy-N-[2-(4-morpholinyl)ethyl]-1-[2-(4-morpholinyl)-2-oxoethyl]-2-oxo-1,2-dihydro-1,5-naphthyridine-3-carboxamide]",10 to 25 nM
17,"COCCNC(=O)c1c(O)c2ncc(Cc3ccc(F)cc3)cc2n(CC(=O)N2CCOCC2)c1=O [Example 84, 7-[(4-Fluorophenyl)methyl]-4-hydroxy-N-[2-(methyloxy)ethyl]-1-[2-(4-morpholinyl)-2-oxoethyl]-2-oxo-1,2-dihydro-1,5-naphthyridine-3-carboxamide]",< 10 nM
18,"CC(C)(CO)CNC(=O)c1c(O)c2ncc(Cc3ccc(F)cc3)cc2[nH]c1=O [Example 85, 7-[(4-Fluorophenyl)methyl]-4-hydroxy-N-(3-hydroxy-2,2-dimethylpropyl)-2-oxo-1,2-dihydro-1,5-naphthyridine-3-carboxamide]",< 10 nM
19,"O=C(NCCOCCO)c1c(O)c2ncc(Cc3ccc(F)cc3)cc2[nH]c1=O [Example 86, 7-[(4-Fluorophenyl)methyl]-4-hydroxy-N-{2-[(2-hydroxyethyl)oxy]ethyl}-2-oxo-1,2-dihydro-1,5-naphthyridine-3-carboxamide]",< 10 nM
20,"COCCNC(=O)c1c(O)c2ncc(Cc3ccc(F)cc3)cc2n(CC(=O)N(C)C)c1=O [Example 89, 1-[2-(Dimethylamino)-2-oxoethyl]-7-[(4-fluorophenyl)methyl]-4-hydroxy-N-[2-(methyloxy)ethyl]-2-oxo-1,2-dihydro-1,5-naphthyridine-3-carboxamide]",< 10 nM
21,"CN(C)C(=O)Cn1c(=O)c(C(=O)NCCN2CCOCC2)c(O)c2ncc(Cc3ccc(F)cc3)cc21 [Example 91, 1-[2-(Dimethylamino)-2-oxoethyl]-7-[(4-fluorophenyl)methyl]-4-hydroxy-N-[2-(4-morpholinyl)ethyl]-2-oxo-1,2-dihydro-1,5-naphthyridine-3-carboxamide]",10 to 25 nM
22,"O=C(NCCCN1CCOCC1)c1c(O)c2ncc(Cc3ccc(F)cc3)cc2n(CC(=O)N2CCOCC2)c1=O [Example 93, 7-[(4-Fluorophenyl)methyl]-4-hydroxy-1-[2-(4-morpholinyl)-2-oxoethyl]-N-[3-(4-morpholinyl)propyl]-2-oxo-1,2-dihydro-1,5-naphthyridine-3-carboxamide]",10 to 25 nM
23,"O=C(NCCCN1CCCC1=O)c1c(O)c2ncc(Cc3ccc(F)cc3)cc2n(CC(=O)N2CCOCC2)c1=O [Example 94, 7-[(4-Fluorophenyl)methyl]-4-hydroxy-1-[2-(4-morpholinyl)-2-oxoethyl]-2-oxo-N-[3-(2-oxo-1-pyrrolidinyl)propyl]-1,2-dihydro-1,5-naphthyridine-3-carboxamide]",10 to 25 nM
24,"O=C(NCCO)c1c(O)c2ncc(Cc3ccc(F)cc3)cc2n(CC(=O)N2CCOCC2)c1=O [Example 95, 7-[(4-Fluorophenyl)methyl]-4-hydroxy-N-(2-hydroxyethyl)-1-[2-(4-morpholinyl)-2-oxoethyl]-2-oxo-1,2-dihydro-1,5-naphthyridine-3-carboxamide]",10 to 25 nM
